The source made the active and inactive calls. No stated cut-off is given here; in the data, actives have a measured IC50 and inactives only a lower limit.
target: Envelope glycoprotein gp160 (Human immunodeficiency virus 1, UniProt Q6QLK5); assay: inhibitors of HIV fusion peptide binding, primary screen, biochemical, uHTS, fluorescence dequenching (AID 1986)
Sequence (Q6QLK5 whole entry, the tested form may be a part): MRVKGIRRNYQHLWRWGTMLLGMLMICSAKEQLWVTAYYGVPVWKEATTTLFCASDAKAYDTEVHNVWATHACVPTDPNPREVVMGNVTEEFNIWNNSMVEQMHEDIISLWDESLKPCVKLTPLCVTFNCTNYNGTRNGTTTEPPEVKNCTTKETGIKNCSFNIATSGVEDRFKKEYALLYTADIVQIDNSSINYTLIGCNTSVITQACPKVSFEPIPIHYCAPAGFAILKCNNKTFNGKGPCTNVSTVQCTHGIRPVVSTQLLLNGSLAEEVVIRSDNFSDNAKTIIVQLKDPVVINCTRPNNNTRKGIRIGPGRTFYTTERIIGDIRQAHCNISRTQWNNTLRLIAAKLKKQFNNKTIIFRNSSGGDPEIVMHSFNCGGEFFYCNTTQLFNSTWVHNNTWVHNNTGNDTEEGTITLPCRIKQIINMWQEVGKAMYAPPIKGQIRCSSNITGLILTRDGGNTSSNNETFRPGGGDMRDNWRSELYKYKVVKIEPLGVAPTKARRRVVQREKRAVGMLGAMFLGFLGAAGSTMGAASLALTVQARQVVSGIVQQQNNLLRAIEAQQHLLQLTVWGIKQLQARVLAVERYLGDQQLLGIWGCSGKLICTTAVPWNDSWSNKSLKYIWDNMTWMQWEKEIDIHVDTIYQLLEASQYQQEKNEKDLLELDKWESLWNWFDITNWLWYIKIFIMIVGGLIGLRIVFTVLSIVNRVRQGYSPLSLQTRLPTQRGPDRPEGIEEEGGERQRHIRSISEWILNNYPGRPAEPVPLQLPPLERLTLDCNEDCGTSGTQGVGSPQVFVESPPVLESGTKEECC

SMILES	IC50
O=C1NN(c2ccccc2)C(=O)/C1=C\c1cccc(OC(=O)c2cccs2)c1	33.9 µM (active)
CC1(c2ccccc2)CC(C)(C)N2C(=O)/C(=C3\SC(=S)NC3=O)c3cccc1c32 (centres undefined)	83.8 µM (active)
O=C(COc1ccc(Cl)cc1)Nc1cc(NC(=O)COc2ccc(Cl)cc2)cc(C(=O)O)c1	26.4 µM (active)
Cc1cc(Cl)ccc1OC(C)C(=O)Nc1ccc(C(=O)Nc2ccccc2C(=O)O)cc1 (centres undefined)	13.1 µM (active)
